Source: patent US20110189291A1, “DENDRIMER HYDROGELS” (priority 2009, published 2011)
Converted amounts (≈) assume the structure as drawn. “And” between values parts separate entries of the source, which are not always exact repeats. Equal entries are not always repeated. Structures can show the parent of a compound that is named as a salt. Where two headings read alike, the source gives them in different places.

Assays:
[1] = tested on: Human corneal epithelial cells (HCET); assay type: cell-based; settings: 1 h
Protocol: The uptake of brimonidine and timolol maleate by HCET cells after entrapment of the drugs in a hydrogel was studied. As a control, eye drop formulation of both the drugs in phosphate buffer saline was used. • 1. Human corneal epithelial cells (HCET, passage #40) were seeded in a 48 well plate (BD, Falcon®, Multiwell™ tissue culture plates) at a seeding density of 5000 cells/well. • 2. The cells were allowed to adhere to the surface of the well overnight. • 3. […] The cells were washed twice with 200 μl cold PBS pH 7.4 and twice with 200 μl cold acidic PBS pH 5.0. All the washes were collected. Finally, 200 μl of 1% w/v Triton X 100 solution was transferred to each well and allowed to stand for 30 minutes. • 6. The cells were scraped (dislodged) using a pipette tip and suspension of cells in 1% Triton X 100 solution was collected. • 7. Samples were processed as follows: 100 μl of sample collected as described above was diluted to 500 μl using acetonitrile. The samples were vortexed for 10 minutes and centrifuged at 10,000 rpm for 5 minutes, and then analyzed using LC-MS as described in Table 4. Dorzolamide was used as an internal standard

physchem = settings: for solubility: thermodynamic from solid, saturated concentration (solubility); for solubility / saturated concentration (solubility): room temperature
Protocol: Following overnight equilibration at room temperature, the solution was vortexed again and then centrifuged at 10,000 rpm for 5 min to remove undissolved drug. The sample solution was diluted by a factor of 100 in PBS, and absorbance value (Y) at 248 nm was recorded on a GENESYS™ 6 UV-Visual spectrophotometer. Thus, drug concentration (C in μg/mL) was determined using the following regression equation: C=(Y−0.005)/0.063. […] Measurements were done in duplicate.
Following overnight equilibration at room temperature, the solution was vortexed again and then centrifuged to remove undissolved drug. The supernatant was collected, diluted by a factor of 100 in PBS, and its absorbance value (Y) at 248 nm was recorded on a GENESYS™ 6 UV-Visual spectrophotometer. Thus, drug concentration [C] (μg/mL) was determined using the following regression equation: C=(Y−0.005)/0.063 [2]. […] Measurements were done in duplicate.

[2] = In vitro drug release by dialysis in pH 7.4 PBS at 37° C.; assay type: physicochemical; settings: for time for complete release (in words): from eye drop formulations
Protocol: The control eye drop formulation was PBS containing 0.1% brimondien and 0.5% timiolol maleate. […] The dissolution medium was maintained at 37±2° C. and constantly agitated in a shaker incubator. 4. Dissolution medium was completely replaced at all time intervals with 1.5 ml of fresh dissolution medium maintained at 37±2° C. 5. The amount of drug released in the dissolution medium at each time interval was analyzed by LC-MS.

[3] = Ex vivo bovine eye tissue uptake after topical dosing; assay type: in vitro ADME
Protocol: 1. […] Eyes were kept in the muffin plate and partially dipped into PBS pH 7.4. 3. 50 μl of hydrogel formulation or solution was instilled gently as an eye drop onto the corneal surface. 4. After every 15 minutes, 50 μl of fresh PBS pH 7.4 was instilled as an eye drop to prevent corneal drying. 5. At the end of 1 h, eyes were dissected and the following tissues were collected: corneal epithelium, stroma, endothelium and aqueous humor. Tissues were stored at −80° C. before sample processing and analysis. 1. Tissues weights were recorded and 0.49 ml of 2% NaOH solution was added to these tissues along with 10 μl of IS of 12.5 μg/ml. 2. Samples were homogenized, sonicated, and extracted with organic solvent. Final reconstitution was done in 0.5 ml of acetonitrile-water mixture (75:25).

[4] = Ex vivo transcorneal transport
Protocol: 1. Corneas were isolated from freshly excised bovine eyes and mounted in Using chambers. 2. […] Note: Both drugs were present together in this hydrogel/solution cocktail. 3. […] 4. 200 μl of sample was collected from the receiver side with fresh assay buffer replacement at the end of 1, 2, 3, 4 and 6 h. 5. […] 6. Samples were stored at −80° C. prior to analysis. 7. Cumulative percent transport was normalized to the amount of drug present at zero time point.

SMILES: Brc1c(NC2=NCCN2)ccc2nccnc12 [brimonidine]
- Mean % drug content in cell lysate after completion of study (uptake) [1]: 76.17%
- Mean % drug content in first wash with acidic buffer [1]: 0.00%
- Mean % drug content in second wash with acidic buffer [1]: 0.00%
- Mean % drug content in supernatant after completion of study [1]: 0.00%
- uptake with DH formulation higher than with eye drop formulation [1]: 19 fold
- Mean % drug content in first wash with acidic buffer ([1]; pH 7.4): 93.13%
- Mean % drug content in second wash with acidic buffer ([1]; pH 7.4): 2.92%
- Mean % drug content in supernatant after completion of study ([1]; pH 7.4): 0.06%
- solubility (physchem; 8.1% (w/v) G3.0-PEG-dA in PBS, aqueous with cosolvent or surfactant or cyclodextrin, in the presence of G3.0-PEG-dA (8.1% w/v in PBS; DH formulation)): 696 µg/mL
- solubility increase (physchem; G3.0-PEG-dA / DH formulation versus plain PBS): 77.5% and 77.6%
- solubility (physchem; PBS, aqueous buffer, plain PBS): 392 µg/mL (≈ 1340 µM)
- saturated concentration (solubility) (physchem; in the presence of G3.0-PEG-dA (8.1% w/v in PBS; DH formulation)): 696 µg/mL
- saturated concentration (solubility) (physchem; plain PBS): 392 µg/mL
- duration of sustained release ([2]; from DH formulation): ~72 h
- time for complete release (in words) [2]: within one hour and a half
- duration of sustained release ([2]; from hydrogel Formulation C (0.1% brimonidine, 0.5% timolol maleate), 37° C.): 72 h
- level in aqueous humor, hydrogel versus eye drop formulation (in words) ([3]; 1 h after topical instillation): significant difference in drug level was not observed
- corneal transport, hydrogel formulation versus solution (in words) ([4]; at the end of 6 h): slightly higher transport
- cumulative percentage transport across the cornea ([4]; from the DH formulation, at 6 h): 1.06±0.18%

SMILES: CC(C)(C)NC[C@H](O)COc1nsnc1N1CCOCC1 [timolol maleate]
- Mean % drug content in first wash with acidic buffer [1]: 0.0%
- Mean % drug content in second wash with acidic buffer [1]: 14.9%
- Mean % drug content in supernatant after completion of study [1]: 0.1%
- Mean % drug content in first wash with acidic buffer ([1]; pH 7.4): 0.0%
- Mean % drug content in second wash with acidic buffer ([1]; pH 7.4): 34.7%
- Mean % drug content in supernatant after completion of study ([1]; pH 7.4): 0.2%
- duration of sustained release ([2]; from DH formulation): ~56 h
- time for complete release (in words) [2]: within one hour and a half
- level from hydrogel formulation more than from eye drop solution ([3]; bovine, 1 h, 0.5 %, pH 7.4): 40%
- corneal transport, hydrogel formulation versus solution (in words) [4]: higher from hydrogel
- cumulative percentage transport across the cornea ([4]; bovine, 6 h, pH 7): 13.54±1.83%
